Measurements: PMC8359193, “Summary of reference chemicals evaluated by the fish short‐term reproduction assay, OECD TG229, using Japanese Medaka, Oryzias latipes” (Journal of Applied Toxicology, 2021)
Entries after “also recorded” stand apart in the source; their conditions may differ. Structures can show the parent of a compound that is named as a salt.

Tests used:
[1] = test system: Japanese medaka (Oryzias latipes); test: Fish short-term reproduction assay (FSTRA, OECD TG229), 21-day flow-through exposure; settings: for GSI Female / HSI Female / Length Female / Weight Female / GSI Male / HSI Male / Length Male / Weight Male: at completion of exposure; for Fertility rate (%) / Mortality (%) Female / Mortality (%) Male / Number of fertilized eggs / Number of total eggs / SSC Female / SSC Male / VTG (ng/mg of liver) Female / VTG (ng/mg of liver) Male: 21 days; for effect on fecundity (number of total eggs), in words: within the test concentrations
Description: The experimental studies on the FSTRA for the 16 chemicals were conducted in two laboratories in Japan, the National Institute for Environmental Studies (NIES, Lab‐1) and the Institute of Environmental Ecology, IDEA Consultants Inc. (Lab‐2), in accordance with OECD TG229 (OECD, [2012a]) (Table 1).
The NIES‐R strain of Japanese medaka (O. latipes), one of the orange‐red varieties, was used in all the 16 chemical studies. For the studies, healthy and mature male and female medakas at 16 ± 2 weeks old were selected from a single‐stock population, which were bred within the test facilities. The test fish were maintained in conditions similar to the assay for at least 7 days, and spawning status was checked during the acclimation period. On the day the chemical exposure commenced, to ensure balanced distribution of test fish between the treatment groups for the reproductive status of the fish, the replicate vessels (fish tanks), with each containing three male and female medaka, were distributed to each treatment and control group, for example, by a randomized block design based on the number of fertilized eggs laid in the last 5–7 days during the acclimation, in each assay.
The water solubility of the test chemical was also taken into consideration when deciding the highest test concentration. To set the lower concentrations, a spacing factor ranging between two and five was used. All assays included a dilution water control (DWC).
Test solutions at the selected concentrations were prepared by diluting a stock solution, which was prepared by an adequate method depending on the physicochemical properties of the test chemicals, for example, by simply mixing the test chemical in dilution water by stirring and/or sonicating for an appropriate time or by using a solid–liquid saturator. In the two laboratories, flow‐through exposure systems, in which a series of test solutions at the target concentrations can be continuously prepared and delivered to test vessels at controlled flow rates (Haselman et al., [2016]; Watanabe et al., [2017]), were used for the exposure experiments.
In the FSTRA, three mature adult males and females in a test vessel were exposed together to the test chemicals in flow‐through condition for 3 weeks. In all the assays, each treatment group, including the DWC group, contained four replicate tanks. During the exposure period, the fish were fed a sufficient amount of live brine shrimp nauplii (newly hatched Artemia sp.) for daily spawning ad libitum. Fecal material in the tanks was appropriately removed by siphoning after feeding. Water temperature of test solutions was recorded for at least one vessel in each treatment and control group every day and for all vessels at least once a week. Furthermore, dissolved oxygen and pH of test solutions were measured for all test vessels at least once a week. Mortality and abnormal behavior and appearance in the fish exposed to test chemicals were daily observed, and any fish that died were removed from the tank as soon as possible. To assess the reproductive status, all eggs females spawned were collected every day. At the completion of the chemical exposure, surviving fish in each tank were sampled.
The eggs females released on the bottom of the tank were collected by siphoning, and the egg clutches still on female abdomen were carefully picked from the body of the females captured using a small net. All the eggs collected were microscopically observed and separately counted for fertilized and unfertilized.

medaka Esr1 (mEsr1) = target: T1, medaka Esr1 (mEsr1) (Oryzias latipes, UniProt P50241); test: Medaka Esr1 reporter gene assay (RGA), antagonist assay with 1 nM E2, HEK293 cells; type: cell-based, Japanese medaka (Oryzias latipes)
T1 construct: expressed in transfected cells; host or cells: HEK293 (human embryonic kidney cells), transient transfection with FuGENE HD
T1 sequence (P50241 1-620): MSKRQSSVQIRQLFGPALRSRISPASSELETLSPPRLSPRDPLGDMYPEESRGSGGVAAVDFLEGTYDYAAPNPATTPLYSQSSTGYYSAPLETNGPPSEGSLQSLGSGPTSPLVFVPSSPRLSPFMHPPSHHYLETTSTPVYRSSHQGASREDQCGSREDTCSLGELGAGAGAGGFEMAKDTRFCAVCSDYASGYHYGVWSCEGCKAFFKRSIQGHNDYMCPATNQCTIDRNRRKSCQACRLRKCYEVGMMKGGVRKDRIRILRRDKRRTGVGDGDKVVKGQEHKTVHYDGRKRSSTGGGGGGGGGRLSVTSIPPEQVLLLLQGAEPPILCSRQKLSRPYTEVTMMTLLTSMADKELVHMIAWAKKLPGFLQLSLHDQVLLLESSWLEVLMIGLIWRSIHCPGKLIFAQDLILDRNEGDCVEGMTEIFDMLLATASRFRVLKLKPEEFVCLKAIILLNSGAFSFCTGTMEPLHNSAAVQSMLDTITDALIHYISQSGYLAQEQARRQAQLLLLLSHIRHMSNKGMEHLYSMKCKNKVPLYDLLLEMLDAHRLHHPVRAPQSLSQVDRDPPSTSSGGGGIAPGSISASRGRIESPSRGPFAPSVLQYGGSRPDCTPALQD
Description: To support interpretation of the biological effects observed in the FSTRA studies, in vitro RGAs using medaka Esr1 (mEsr1) and medaka ARβ (mARβ) were performed for the 16 test chemicals. In the present study, Esr1 and ARβ, which are ancestral subtypes among Esrs and ARs in Japanese medaka, were selected based on the phylogenetical analyses of Esr and AR with each receptor RGAs (Ogino et al., [2016], [2018]; Tohyama et al., [2015]).
The mEsr1 RGA consisting of agonist and antagonist assays were performed according to the methods previously reported (Katsu et al., [2010]; Lange et al., [2012]; Miyagawa et al., [2014]). Briefly, human embryonic kidney cells 293 (HEK293), precultured, were seeded in 96‐well plates at 15,000 cells/well with 200 μl of culture medium, phenol‐red‐free Dulbecco's Modified Eagle's medium (ThermoFisher Scientific K.K., Tokyo, Japan) supplemented with 2‐mM L‐glutamine and 10% charcoal/dextran‐treated fetal bovine serum (Hyclone, UT, USA), and then incubated for 24 h in 5% CO2 at 37°C. After the 24‐h incubation, 20 μl of test medium containing 40 ng of medaka Esr1/pcDNA3.1, 80 ng of ERE‐TK‐Luc, and 20 ng of pRL‐TK‐Rlu and 1.2 μL of transfection reagent FuGENE HD (Promega, WI, USA) were added into each well. The assay plates were incubated for another 4 h in order to transfect the three vectors into the HEK293 cells. After the vectors were successfully transfected, in agonist assay, 24 μl of concentrated test chemical solution was applied to the test medium in the plate wells. […] After chemical treatment for 40 h, luciferase activity of the cells was measured, and the promoter activity was calculated as firefly (Photinus pyralis)‐/sea pansy (Renilla reniformis)‐luciferase activity in each well. The luciferase activities were quantified by a chemiluminescence assay with Dual‐Luciferase Reporter Assay System (Promega) in accordance with the manufacturer's instructions, and luminescence intensity of firefly and sea pansy luciferin was measured using a luminometer, TriStar LB941 (Berthold Technology, Oak Ridge, TN, USA).
Effect concentrations, that is, EC50 (a half maximal effective concentration) in the agonist assay and IC50 (a half maximal inhibitory concentration) in the antagonist assay, were estimated by nonlinear curve fitting (e.g., three parameters logistic regression curve) using GraphPad Prism (GraphPad Software Inc., La Jolla, CA, USA).

Japanese medaka = settings: MMT; ref Flynn et al. (2017); cited from earlier work
[2] = female, measured conc. 20.6 μg/L
[3] = female, measured conc. 44.9 μg/L
[4] = hepatic VTG, 21-day exposure, measured conc.

## CCCN(CCOc1c(Cl)cc(Cl)cc1Cl)C(=O)n1ccnc1 [PCL, Prochloraz]
[1]; 21-day exposure
  effect on fertility rate, in words: significant decrease; also recorded: significant reduction
  effect on fecundity (number of total eggs), in words: No effect
[1]; [2]
  GSI Female: 10.2%
  HSI Female: 4.2%
  Length Female: 35.0 mm
  Weight Female: 547 mg
[1]; [3]
  GSI Female: 11.1%
  HSI Female: 4.5%
  Length Female: 36.5 mm
  Weight Female: 591 mg
[1]; [4]
  LOEC for decrease of VTG in females: 44.9 µg/L
[1]; male, measured conc. 20.6 μg/L
  GSI Male: 1.26%
  HSI Male: 1.7%
  Length Male: 34.4 mm
  Weight Male: 408 mg
[1]; male, measured conc. 44.9 μg/L
  GSI Male: 1.16%
  HSI Male: 1.7%
  Length Male: 34.3 mm
  Weight Male: 415 mg
[1]; measured conc. 20.6 μg/L
  Fertility rate (%): 94%
  Mortality (%) Female: 0%
  Mortality (%) Male: 0%
  Number of fertilized eggs: 37
  Number of total eggs: 39 ± 4.5 /female/day
  SSC Female: 0 ± 0
  SSC Male: 103 ± 15
  VTG (ng/mg of liver) Female: 289 ± 57 ng/mg of liver
  VTG (ng/mg of liver) Male: 2.6 ± 2.0 ng/mg of liver
[1]; measured conc. 44.9 μg/L
  Fertility rate (%): 84%
  Mortality (%) Female: 0%
  Mortality (%) Male: 0%
  Number of fertilized eggs: 28
  Number of total eggs: 34 ± 5.5 /female/day
  SSC Female: 0 ± 0
  SSC Male: 93 ± 13
  VTG (ng/mg of liver) Female: 173 ± 53 ng/mg of liver
  VTG (ng/mg of liver) Male: 1.2 ± 1.2 ng/mg of liver
Medaka Esr1 (mEsr1)
  IC50: > 10 µM

## CC/C(=C(\c1ccccc1)c1ccc(OCCN(C)C)cc1)c1ccccc1 [TAM, tamoxifen citrate]
[1]; both, NIES-R, Japanese medaka (Oryzias latipes), in vivo
  time from initiation of treatment to drastic reduction of daily fecundity: ≤ 3 days
[1]; [4]
  LOEC for VTG induction in males: 10.0 µg/L
  LOEC for decrease of VTG in females: 10.0 µg/L
[1]; in vivo
  LOEC on female VTG: times lower than that for RAL: 70 times
[1]; measured conc. 10.0 μg/L
  Fertility rate (%): 94%
  Mortality (%) Female: 0%
  Mortality (%) Male: 0%
  Number of fertilized eggs: 12
  Number of total eggs: 13 ± 1.1 /female/day
  SSC Female: 0 ± 0
  SSC Male: 85 ± 11
  VTG (ng/mg of liver) Female: 666 ± 96 ng/mg of liver
  VTG (ng/mg of liver) Male: 181 ± 30.0 ng/mg of liver
  GSI Female: 7.3%
  GSI Male: 0.89%
  HSI Female: 3.6%
  HSI Male: 2.2%
  Length Female: 32.3 mm
  Length Male: 33.6 mm
  Weight Female: 369 mg
  Weight Male: 419 mg
[1]; measured conc. 83.3 μg/L
  Fertility rate (%): 76%
  Mortality (%) Female: 8.3%
  Mortality (%) Male: 0%
  Number of fertilized eggs: 1.6
  Number of total eggs: 2.2 ± 0.8 /female/day
  SSC Female: 0 ± 0
  SSC Male: 85 ± 7.0
  VTG (ng/mg of liver) Female: 335 ± 138 ng/mg of liver
  VTG (ng/mg of liver) Male: 319 ± 126 ng/mg of liver
  GSI Female: 11.5%
  GSI Male: 0.87%
  HSI Female: 4.2%
  HSI Male: 2.5%
  Length Female: 32.9 mm
  Length Male: 32.5 mm
  Weight Female: 418 mg
  Weight Male: 374 mg
[1]; 21-day exposure
  effect on fecundity (number of total eggs), in words: statistically significant decrease
Japanese medaka
  LOEC on female VTG (reduction): 1.3 µg/L
